Results published in ChEMBL document CHEMBL1201862, “PubChem BioAssay data set” (2004).
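Each compound was tested at five concentrations against cells in 96-well plates for 48 hours. GI50: concentration for 50% inhibition of growth.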 Activity calls are given as the source filed them. No stated cut-off is given here; in the data, active = GI50 up to about 1.1 µM and inactive = higher.

What was measured:
Assay in all cases: DTP human tumour cell line panel, 48 h
A549 = test system: A549
COLO 205 = test system: COLO 205
DU-145 = test system: DU-145
HCC 2998 = test system: HCC 2998
HCT-15 = test system: HCT-15
IGROV-1 = test system: IGROV-1
LOX IMVI = test system: LOX IMVI
MDA-MB-435 = test system: MDA-MB-435
MDA-N = test system: MDA-N
Malme-3M = test system: Malme-3M
NCI-H226 = test system: NCI-H226
NCI-H23 = test system: NCI-H23
OVCAR-4 = test system: OVCAR-4
OVCAR-5 = test system: OVCAR-5
OVCAR-8 = test system: OVCAR-8
SK-MEL-5 = test system: SK-MEL-5
SNB-75 = test system: SNB-75
SW-620 = test system: SW-620
UACC-257 = test system: UACC-257

SMILES	GI50 (A549)	GI50 (COLO 205)	GI50 (DU-145)	GI50 (HCC 2998)	GI50 (HCT-15) [µM]	GI50 (IGROV-1)	GI50 (LOX IMVI)	GI50 (MDA-MB-435)	GI50 (MDA-N)	GI50 (Malme-3M)	GI50 (NCI-H226)	GI50 (NCI-H23)	GI50 (OVCAR-4)	GI50 (OVCAR-5)	GI50 (OVCAR-8)	GI50 (SK-MEL-5)	GI50 (SNB-75)	GI50 (SW-620)	GI50 (UACC-257)
CCCCCCCC(=O)N/N=C/c1ccc(Sc2nccn2C)c([N+](=O)[O-])c1	27.9 µM (inactive)	13.7 µM (inactive)	18.4 µM (inactive)	13.4 µM (inactive)	14.5	6.79 µM (inactive)	10.4 µM (inactive)	13.6 µM (inactive)	16.5 µM (inactive)	14.4 µM (inactive)	14.5 µM (inactive)	18.2 µM (inactive)	13.2 µM (inactive)	18.2 µM (inactive)	14.4 µM (inactive)	12.9 µM (inactive)	15.5 µM (inactive)	14.9 µM (inactive)	13.7 µM (inactive)
C1CSCCCSCCCSCCCSCCCSC1	28.5 µM (inactive)	13.1 µM (inactive)	46.5 µM (inactive)	38 µM (inactive)	40.6	31.1 µM (inactive)	17.4 µM (inactive)	41.9 µM (inactive)	32.3 µM (inactive)	33.3 µM (inactive)	25.5 µM (inactive)	26.5 µM (inactive)	22.5 µM (inactive)	57.8 µM (inactive)	29 µM (inactive)	14.2 µM (inactive)	20.1 µM (inactive)	56.5 µM (inactive)	25.5 µM (inactive)
C=C1c2nc3ccccc3n2C=C(c2ccccc2)N1c1ccc(Cl)cc1	15.8 µM (inactive)	> 64.3 µM (inactive)	59.8 µM (inactive)	65.6 µM (inactive)	33.3	10.6 µM (inactive)	45.8 µM (inactive)	> 82.8 µM (inactive)	78.9 µM (inactive)	7.85 µM (inactive)	29 µM (inactive)	33.1 µM (inactive)	5.74 µM (inactive)	21.7 µM (inactive)	25.1 µM (inactive)	15.3 µM (inactive)	5.12 µM (inactive)	26.5 µM (inactive)	32.2 µM (inactive)
CN1N=C(c2ccccc2)C(C(c2ccccc2[N+](=O)[O-])C2C(=O)N(C)N=C2c2ccccc2)C1=O (stereo not given)	> 100 µM (inactive)	> 100 µM (inactive)	> 100 µM (inactive)	53 µM (inactive)	42.6	25.1 µM (inactive)	26.9 µM (inactive)	> 100 µM (inactive)	> 100 µM (inactive)	> 100 µM (inactive)	> 51.1 µM (inactive)	> 100 µM (inactive)	> 100 µM (inactive)	> 100 µM (inactive)	39.3 µM (inactive)	> 100 µM (inactive)	> 87.1 µM (inactive)	99.3 µM (inactive)	> 71.4 µM (inactive)
CC(=O)O[C@H]1C[C@@H](OC(C)=O)[C@@](C)(O)[C@@H]2[C@@H](OC(C)=O)[C@@]3(O)[C@H](/C=C(/CO)[C@H]4O[C@H]4[C@@H](OC(C)=O)[C@@]12C)OC(=O)[C@@H]3C	10.4 µM (inactive)	9.35 µM (inactive)	5.27 µM (inactive)	8.91 µM (inactive)	9.1	8.17 µM (inactive)	8.71 µM (inactive)	5.42 µM (inactive)	3.09 µM (inactive)	7.78 µM (inactive)	9.73 µM (inactive)	16.8 µM (inactive)	> 25 µM (inactive)	> 25 µM (inactive)	12.7 µM (inactive)	9.25 µM (inactive)	5.53 µM (inactive)	11.5 µM (inactive)	13.7 µM (inactive)
O=c1c(=O)c2c(Br)sc(Br)c2c1=O	> 100 µM (inactive)	20.3 µM (inactive)	> 100 µM (inactive)	57.3 µM (inactive)	19.4	18.2 µM (inactive)	19.7 µM (inactive)	19.1 µM (inactive)	18.1 µM (inactive)	17.7 µM (inactive)	> 100 µM (inactive)	20.3 µM (inactive)	16.4 µM (inactive)	20.3 µM (inactive)	18.3 µM (inactive)	16.9 µM (inactive)	28.9 µM (inactive)	15.8 µM (inactive)	19.5 µM (inactive)
Cc1cc(Nc2ccc(S(=O)(=O)O)cc2)c2ccccc2n1	> 100 µM (inactive)	> 100 µM (inactive)	> 100 µM (inactive)	> 100 µM (inactive)	> 100	> 100 µM (inactive)	> 100 µM (inactive)	> 100 µM (inactive)	> 100 µM (inactive)	> 100 µM (inactive)	> 100 µM (inactive)	> 100 µM (inactive)	> 100 µM (inactive)	> 100 µM (inactive)	> 100 µM (inactive)	> 100 µM (inactive)	> 100 µM (inactive)	> 100 µM (inactive)	> 100 µM (inactive)
COc1ccc(C(OCC2OC(n3cc(C)c(=O)[nH]c3=O)CC2n2cc(Cn3cc(I)c(=O)[nH]c3=O)nn2)(c2ccccc2)c2ccccc2)cc1 (stereo not given)	> 100 µM (inactive)	> 100 µM (inactive)	> 100 µM (inactive)	> 100 µM (inactive)	> 100	> 100 µM (inactive)	> 100 µM (inactive)	> 100 µM (inactive)	> 100 µM (inactive)	> 100 µM (inactive)	> 100 µM (inactive)	> 100 µM (inactive)	> 100 µM (inactive)	> 100 µM (inactive)	> 100 µM (inactive)	> 100 µM (inactive)	48.6 µM (inactive)	> 100 µM (inactive)	> 100 µM (inactive)
CCC12CN(C(=O)OC)C3C(Br)C1CCC(=O)C32 (stereo not given)	> 100 µM (inactive)	> 100 µM (inactive)	> 100 µM (inactive)	> 100 µM (inactive)	> 100	> 100 µM (inactive)	> 100 µM (inactive)	> 100 µM (inactive)	> 100 µM (inactive)	> 100 µM (inactive)	> 100 µM (inactive)	> 100 µM (inactive)	> 100 µM (inactive)	> 100 µM (inactive)	> 100 µM (inactive)	> 100 µM (inactive)	> 100 µM (inactive)	> 100 µM (inactive)	> 100 µM (inactive)
COC(=O)[C@H](Cc1c[nH]c2ccccc12)NP(=O)(OCCC#N)OCC1OC(n2cc(C)c(=O)[nH]c2=O)CC1N=[N+]=[N-] (stereo not given in full)	> 100 µM (inactive)	> 100 µM (inactive)	> 100 µM (inactive)	> 100 µM (inactive)	> 100	> 100 µM (inactive)	> 100 µM (inactive)	> 100 µM (inactive)	> 100 µM (inactive)	> 100 µM (inactive)	> 100 µM (inactive)	> 100 µM (inactive)	> 100 µM (inactive)	> 100 µM (inactive)	> 100 µM (inactive)	> 100 µM (inactive)	> 100 µM (inactive)	> 100 µM (inactive)	> 100 µM (inactive)
